Common to all, as to type: cell-based
Experiment [1] concerns the target SMARCA4 (Homo sapiens (Human), UniProt P51532). Description: SMARCA4 HiBiT degradation assay in HeLa cells. To be noted: 18 hours. As to the method: (§1) HiBiT peptide knock-in of SMARCA2 in LgBiT expressing HEK293T cells was performed by CRISPR-mediated tagging system as described Promega. The homozygous HiBiT knock-in on c-terminus SMARCA2 was confirmed by sanger sequence. SMARCA2-HiBiT knock-in Hela monoclonal cell (CS302366) and SMARCA4-HiBiT knock-in Hela monoclonal cell (CS3023226) were purchased from Promega. The heterozygous HiBiT-knock-in was confirmed by sanger sequence in both SMARCA2-HiBiT and SMARCA4-HiBiT monoclonal cells.
(§2) Dispense 10 μL aliquot of prepared Hela-SMARCA2-HiBiT or Hela-SMARCA4-HiBiT cells (1:1 ratio of cells:Trypan Blue (#1450013, Bio-Rad)) onto cell counting slide (#145-0011, Bio-Rad) and obtain cell density and cell viability using cell counter (TC20, Bio-Rad). Remove appropriate volume of resuspended cells from culture flask to accommodate 2500 cells/well @ 20 μL/well. Transfer Hela-HiBiT cells to 50 ml conical (#430290, Corning). Spin down at 1000 rpm for 5 min using tabletop centrifuge (SPINCHRON 15, Beckman). Discard supernatant and resuspend cell pellet in modified EMEM (#30-2003, ATCC) cell culture media containing 10% FBS (F2422-500ML, Sigma), and 1×Penicillin/Streptomycin (200 g/1) (30-002-CI, Corning) to a cell density of 125,000 cells/ml. Dispense 20 μL of resuspended Hela-HiBit cells per well in 384-well TC treated plate (#12-565-343, Thermo Scientific) using standard cassette (#50950372, Thermo Scientific) on Multidrop Combi (#5840310, Thermo Scientific) inside laminar flow cabinet. Dispense test compounds onto plates using digital liquid dispenser (D300E, Tecan). Incubate plates in humidified tissue culture incubator @37° C. for 18 hours. Add 20 ul of prepared Nano-Glo® HiBiT Lytic detection buffer (N3050, Promega) to each well of 384-well plate using small tube cassette (#24073295, Thermo Scientific) on Multidrop Combi, incubate @ RT for 30-60 min. Read plates on microplate reader (Envision 2105, PerkinElmer) using 384 well Ultra-Sensitive luminescence mode. Raw data files and compound information reports are swept into centralized data lake and deconvoluted using automated scripts designed by TetraScience, Inc. Data analysis, curve-fitting and reporting done in Dotmatics Informatics Suite using Screening Ultra module.
For orientation: With HiBiT, luminescence reflects the tagged protein that the partner subunit can reach.

The target in experiment [2] is T1, SMARCA2 (Homo sapiens (Human), UniProt P51531). The experiment can be described thus: SMARCA2 HiBiT degradation assay in HeLa cells. To be noted: 18 hours. The procedure:
as §1, §2

Experiment [3] has as its target T1, SMARCA2. Description: SMARCA2 HiBiT degradation assay in HEK293T cells. To be noted: 293T HiBiT assay, 24 h; for DC50: read-out: DC50 (SM2-293T) SMARCA2 degradation potency; for Dmax: HEK-293T, read-out: Dmax % (SM2-293T) maximum SMARCA2 degradation within the concentrations tested. Summed up:
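LgBiT-expressing HEK293T cells with homozygous C-terminal HiBiT knock-in on endogenous SMARCA2 treated 24 h with 11-point 3-fold compound dilutions. Lytic HiBiT luminescence normalized to DMSO (high) and 1 μM PRT1001728 (low) controls; DC50 from four-parameter curve fit.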

Where only a bound is given, the exact number is not on record here.

These results are taken from US20240018158A1, “BRM TARGETING COMPOUNDS AND ASSOCIATED METHODS OF USE” (Prelude Therapeutics Incorporated, priority 2020, published 2024).

T1 sequence (P51531 whole entry): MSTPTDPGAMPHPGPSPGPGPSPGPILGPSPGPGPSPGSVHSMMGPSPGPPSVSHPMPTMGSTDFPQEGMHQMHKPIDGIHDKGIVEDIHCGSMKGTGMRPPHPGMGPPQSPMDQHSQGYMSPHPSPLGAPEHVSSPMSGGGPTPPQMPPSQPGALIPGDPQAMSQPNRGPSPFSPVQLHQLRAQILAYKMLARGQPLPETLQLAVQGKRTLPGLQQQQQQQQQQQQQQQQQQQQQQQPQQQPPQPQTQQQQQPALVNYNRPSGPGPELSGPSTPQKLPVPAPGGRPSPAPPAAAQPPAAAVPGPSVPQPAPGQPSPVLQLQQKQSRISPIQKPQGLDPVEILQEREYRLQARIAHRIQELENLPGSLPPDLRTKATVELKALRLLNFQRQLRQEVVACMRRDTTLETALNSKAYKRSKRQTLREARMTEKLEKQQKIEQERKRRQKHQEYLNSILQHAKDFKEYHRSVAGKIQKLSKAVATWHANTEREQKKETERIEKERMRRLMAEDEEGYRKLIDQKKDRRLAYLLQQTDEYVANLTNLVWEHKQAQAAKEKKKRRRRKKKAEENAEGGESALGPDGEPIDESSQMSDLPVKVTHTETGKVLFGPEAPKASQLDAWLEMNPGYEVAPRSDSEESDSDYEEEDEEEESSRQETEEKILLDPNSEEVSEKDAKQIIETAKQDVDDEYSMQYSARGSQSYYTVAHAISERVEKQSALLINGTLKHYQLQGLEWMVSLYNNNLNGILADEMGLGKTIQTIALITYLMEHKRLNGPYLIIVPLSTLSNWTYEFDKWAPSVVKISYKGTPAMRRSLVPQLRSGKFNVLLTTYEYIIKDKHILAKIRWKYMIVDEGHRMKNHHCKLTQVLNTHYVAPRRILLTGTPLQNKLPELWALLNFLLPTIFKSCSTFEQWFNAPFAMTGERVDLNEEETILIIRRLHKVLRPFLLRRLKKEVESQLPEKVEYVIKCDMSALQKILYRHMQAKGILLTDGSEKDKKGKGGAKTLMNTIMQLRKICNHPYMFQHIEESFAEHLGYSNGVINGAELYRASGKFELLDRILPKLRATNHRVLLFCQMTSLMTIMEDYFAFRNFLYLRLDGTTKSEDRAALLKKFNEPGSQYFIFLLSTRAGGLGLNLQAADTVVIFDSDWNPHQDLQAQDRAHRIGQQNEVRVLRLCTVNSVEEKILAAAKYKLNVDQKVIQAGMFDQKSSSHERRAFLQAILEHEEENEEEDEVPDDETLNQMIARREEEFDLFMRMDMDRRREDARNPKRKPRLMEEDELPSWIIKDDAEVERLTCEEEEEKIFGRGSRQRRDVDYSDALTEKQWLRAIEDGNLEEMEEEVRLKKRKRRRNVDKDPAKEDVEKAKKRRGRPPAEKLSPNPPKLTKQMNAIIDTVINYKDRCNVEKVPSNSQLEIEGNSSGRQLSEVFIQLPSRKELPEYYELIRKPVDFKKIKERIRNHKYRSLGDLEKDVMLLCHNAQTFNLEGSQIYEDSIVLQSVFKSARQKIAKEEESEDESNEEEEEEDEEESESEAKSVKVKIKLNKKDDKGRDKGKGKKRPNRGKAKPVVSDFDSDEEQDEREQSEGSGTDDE
Chain of SMARCA4 (P51532 whole entry): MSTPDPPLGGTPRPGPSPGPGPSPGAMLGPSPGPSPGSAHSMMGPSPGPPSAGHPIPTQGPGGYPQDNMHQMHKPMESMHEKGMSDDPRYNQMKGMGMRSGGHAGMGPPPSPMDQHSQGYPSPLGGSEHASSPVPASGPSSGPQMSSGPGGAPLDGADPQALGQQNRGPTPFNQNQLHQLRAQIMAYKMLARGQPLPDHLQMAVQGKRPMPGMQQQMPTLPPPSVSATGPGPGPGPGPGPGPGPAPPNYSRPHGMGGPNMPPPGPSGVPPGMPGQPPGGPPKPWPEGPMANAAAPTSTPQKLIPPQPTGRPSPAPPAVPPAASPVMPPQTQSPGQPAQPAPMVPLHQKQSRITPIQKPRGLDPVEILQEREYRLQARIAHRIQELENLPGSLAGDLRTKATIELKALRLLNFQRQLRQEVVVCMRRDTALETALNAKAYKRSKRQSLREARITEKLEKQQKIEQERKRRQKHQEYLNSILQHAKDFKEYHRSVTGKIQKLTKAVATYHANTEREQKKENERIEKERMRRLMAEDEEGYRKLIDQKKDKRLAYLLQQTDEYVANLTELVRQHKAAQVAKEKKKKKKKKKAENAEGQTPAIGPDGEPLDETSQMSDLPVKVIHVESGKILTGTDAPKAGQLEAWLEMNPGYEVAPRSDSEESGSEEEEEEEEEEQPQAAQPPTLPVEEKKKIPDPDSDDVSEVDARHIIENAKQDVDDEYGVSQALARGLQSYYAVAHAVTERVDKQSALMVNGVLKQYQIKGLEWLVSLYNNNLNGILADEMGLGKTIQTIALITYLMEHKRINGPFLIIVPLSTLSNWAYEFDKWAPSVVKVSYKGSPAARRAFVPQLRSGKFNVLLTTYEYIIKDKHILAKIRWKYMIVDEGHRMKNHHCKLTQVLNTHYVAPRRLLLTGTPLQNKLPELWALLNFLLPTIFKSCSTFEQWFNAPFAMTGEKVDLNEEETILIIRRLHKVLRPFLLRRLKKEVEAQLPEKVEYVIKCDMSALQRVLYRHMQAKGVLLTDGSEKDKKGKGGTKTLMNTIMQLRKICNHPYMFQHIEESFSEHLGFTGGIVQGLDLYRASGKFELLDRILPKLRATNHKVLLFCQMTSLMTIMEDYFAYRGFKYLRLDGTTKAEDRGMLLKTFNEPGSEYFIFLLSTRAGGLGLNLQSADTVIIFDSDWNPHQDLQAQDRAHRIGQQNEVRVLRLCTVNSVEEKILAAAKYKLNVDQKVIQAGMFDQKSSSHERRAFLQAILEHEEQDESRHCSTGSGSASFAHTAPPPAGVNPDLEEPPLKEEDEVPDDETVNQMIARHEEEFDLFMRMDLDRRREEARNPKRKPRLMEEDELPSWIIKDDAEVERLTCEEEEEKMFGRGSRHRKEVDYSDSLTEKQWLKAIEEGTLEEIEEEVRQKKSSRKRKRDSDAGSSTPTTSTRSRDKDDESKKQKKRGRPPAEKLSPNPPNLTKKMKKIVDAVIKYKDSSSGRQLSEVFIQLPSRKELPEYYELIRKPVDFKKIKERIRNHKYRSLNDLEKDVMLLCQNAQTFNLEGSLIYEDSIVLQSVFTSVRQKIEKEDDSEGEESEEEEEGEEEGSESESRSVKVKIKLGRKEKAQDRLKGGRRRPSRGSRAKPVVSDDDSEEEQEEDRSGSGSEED

For orientation: DC50 means the midpoint of the concentration-degradation curve. With `Cc1ncsc1-c1ccc([C@H](C)NC(=O)[C@@H]2C[C@@H](O)CN2C(=O)[C@@H](c2cc(OCC(=O)N3CCC(N4CCN5c6cc(-c7ccccc7O)nnc6NC[C@H]5C4)C(C)C3)no2)C(C)C)cc1` (single isomer, unassigned) [Example 30], the 50% degradation concentration (DC50) in experiment [1] (read-out: DC50 (SM4-HeLa) SMARCA4 degradation potency) and in experiment [2] (read-out: DC50 (SM2-HeLa) SMARCA2 degradation potency) was less than 100 nM in each case. In addition, the Dmax in experiment [1] (HeLa, read-out: Dmax % (SM4-HeLa) maximum SMARCA4 degradation within the concentrations tested) is greater than 75%; in experiment [2] (read-out: Dmax % (SM2-HeLa) maximum SMARCA2 degradation within the concentrations tested) it was greater than 75%.
As to `Cc1ncsc1-c1ccc([C@H](C)NC(=O)[C@@H]2C[C@@H](O)CN2C(=O)[C@@H](c2cc(OCCN3CCC(N4CCN5c6cc(-c7ccccc7O)nnc6NC[C@@H]5C4)CC3)no2)C(C)C)cc1` [Example 77, (2S,4R)-4-hydroxy-1-((R)-2-(3-(2-(4-((R)-2-(2-hydroxyphenyl)-5,6,6a,7,9,10-hexahydro-8H-pyrazino[1′,2′:4,5]pyrazino[2,3-c]pyridazin-8-yl)piperidin-1-yl)ethoxy)isoxazol-5-yl)-3-methylbutanoyl)-N-((S)-1-(4-(4-methylthiazol-5-yl)phenyl)ethyl)pyrrolidine-2-carboxamide], in experiment [3], the DC50 was less than 100 nM and the Dmax is greater than 75%.
Consider `Cc1ncsc1-c1ccc([C@H](C)NC(=O)[C@@H]2C[C@@H](O)CN2C(=O)[C@@H](c2cc(OCCN3C4CCC3CC(CN3CCN5c6cc(-c7ccccc7O)nnc6NCC5C3)C4)no2)C(C)C)cc1` (stereo partly drawn) [Example 78, (2S,4R)-4-hydroxy-1-((2R)-2-(3-(2-(3-((2-(2-hydroxyphenyl)-5,6,6a,7,9,10-hexahydro-8H-pyrazino[1′,2′:4,5]pyrazino[2,3-c]pyridazin-8-yl)methyl)-8-azabicyclo[3.2.1]octan-8-yl)ethoxy)isoxazol-5-yl)-3-methylbutanoyl)-N-((S)-1-(4-(4-methylthiazol-5-yl)phenyl)ethyl)pyrrolidine-2-carboxamide], for which, in experiment [3], the 50% degradation concentration (DC50) is less than 100 nM and the Dmax is greater than 75%.
For the compound `Cc1ncsc1-c1ccc([C@H](C)NC(=O)[C@@H]2C[C@@H](O)CN2C(=O)[C@@H](NC(=O)CN2CCC(N3CCN4c5cc(-c6ccccc6O)nnc5NC[C@@H]4C3)CC2)C(C)(C)C)cc1` [Example 79, (2S,4R)-4-hydroxy-1-((S)-2-(2-(4-((R)-2-(2-hydroxyphenyl)-5,6,6a,7,9,10-hexahydro-8H-pyrazino[1′,2′:4,5]pyrazino[2,3-c]pyridazin-8-yl)piperidin-1-yl)acetamido)-3,3-dimethylbutanoyl)-N-((S)-1-(4-(4-methylthiazol-5-yl)phenyl)ethyl)pyrrolidine-2-carboxamide], in experiment [3], the half-maximal degradation concentration (DC50) was less than 100 nM and the Dmax was greater than 75%.
For `Cc1ncsc1-c1ccc([C@H](C)NC(=O)[C@@H]2C[C@@H](O)CN2C(=O)[C@@H](NC(=O)OCCN2CCC(N3CCN4c5cc(-c6ccccc6O)nnc5NC[C@H]4C3)CC2)C(C)(C)C)cc1` [Example 80, 2-(4-((S)-2-(2-hydroxyphenyl)-5,6,6a,7,9,10-hexahydro-8H-pyrazino[1′,2′:4,5]pyrazino[2,3-c]pyridazin-8-yl)piperidin-1-yl)ethyl ((S)-1-((2S,4R)-4-hydroxy-2-(((S)-1-(4-(4-methylthiazol-5-yl)phenyl)ethyl)carbamoyl)pyrrolidin-1-yl)-3,3-dimethyl-1-oxobutan-2-yl)carbamate] the same measures were less than 100 nM and greater than 75%.
Consider `Cc1ncsc1-c1ccc([C@H](C)NC(=O)[C@@H]2C[C@@H](OC(=O)C(C)C)CN2C(=O)[C@@H](c2cc(OCCN3CCC(N4CCN5c6cc(-c7ccccc7O)nnc6NC[C@H]5C4)CC3)no2)C(C)C)cc1` [Example 81, (3R,5S)-1-((R)-2-(3-(2-(4-((S)-2-(2-hydroxyphenyl)-5,6,6a,7,9,10-hexahydro-8H-pyrazino[1′,2′:4,5]pyrazino[2,3-c]pyridazin-8-yl)piperidin-1-yl)ethoxy)isoxazol-5-yl)-3-methylbutanoyl)-5-(((S)-1-(4-(4-methylthiazol-5-yl)phenyl)ethyl)carbamoyl)pyrrolidin-3-yl isobutyrate], for which, in experiment [3], the DC50 is less than 100 nM and the Dmax was greater than 75%.
In the same order, the values of `Cc1ncsc1-c1ccc([C@H](C)NC(=O)[C@@H]2C[C@@H](O)CN2C(=O)[C@@H](NC(=O)C2CN(CCCN3CCN4c5cc(-c6ccccc6O)nnc5NCC4C3)C2)C(C)(C)C)cc1` (stereo partly drawn) [Example 82, (2S,4R)-4-hydroxy-1-((2S)-2-(1-(3-(2-(2-hydroxyphenyl)-5,6,6a,7,9,10-hexahydro-8H-pyrazino[1′,2′:4,5]pyrazino[2,3-c]pyridazin-8-yl)propyl)azetidine-3-carboxamido)-3,3-dimethylbutanoyl)N-((S)-1-(4-(4-methylthiazol-5-yl)phenyl)ethyl)pyrrolidine-2-carboxamide] are less than 100 nM and greater than 75%.
For `Cc1ncsc1-c1ccc([C@H](C)NC(=O)[C@@H]2C[C@@H](O)CN2C(=O)[C@@H](c2cc(OC3CCN(CCCN4CCN5c6cc(-c7ccccc7O)nnc6NC[C@H]5C4)C3)no2)C(C)C)cc1` (stereo partly drawn) [Example 83, (2S,4R)-4-hydroxy-1-((2R)-2-(3-((1-(3-((S)-2-(2-hydroxyphenyl)-5,6,6a,7,9,10-hexahydro-8H-pyrazino[1′,2′:4,5]pyrazino[2,3-c]pyridazin-8-yl)propyl)pyrrolidin-3-yl)oxy)isoxazol-5-yl)-3-methylbutanoyl)N-((S)-1-(4-(4-methylthiazol-5-yl)phenyl)ethyl)pyrrolidine-2-carboxamide] the same measures were less than 100 nM and greater than 75%.
In the same order, the values of `Cc1ncsc1-c1ccc([C@H](C)NC(=O)[C@@H]2C[C@@H](O)CN2C(=O)[C@@H](c2cc(OCCN3CCCC(CN4CCN5c6cc(-c7ccccc7O)nnc6NC[C@H]5C4)CC3)no2)C(C)C)cc1` (stereo partly drawn) [Example 84, (2S,4R)-4-hydroxy-1-((2R)-2-(3-(2-(4-(((S)-2-(2-hydroxyphenyl)-5,6,6a,7,9,10-hexahydro-8H-pyrazino[1′,2′:4,5]pyrazino[2,3-c]pyridazin-8-yl)methyl)azepan-1-yl)ethoxy)isoxazol-5-yl)-3-methylbutanoyl)-N-((S)-1-(4-(4-methylthiazol-5-yl)phenyl)ethyl)pyrrolidine-2-carboxamide] are less than 100 nM and greater than 75%.
In the case of `Cc1ncsc1-c1ccc([C@H](C)NC(=O)[C@@H]2C[C@@H](O)CN2C(=O)[C@@H](c2cc(OCCN3CCC(CN4CCN5c6cc(-c7ccccc7O)nnc6NC[C@H]5C4)C(C)(C)C3)no2)C(C)C)cc1` (stereo partly drawn) [Example 87, (2S,4R)-4-hydroxy-1-((2R)-2-(3-(2-(4-(((S)-2-(2-hydroxyphenyl)-5,6,6a,7,9,10-hexahydro-8H-pyrazino[1′,2′:4,5]pyrazino[2,3-c]pyridazin-8-yl)methyl)-3,3-dimethylpiperidin-1-yl)ethoxy)isoxazol-5-yl)-3-methylbutanoyl)-N-((S)-1-(4-(4-methylthiazol-5-yl)phenyl)ethyl)pyrrolidine-2-carboxamide], in experiment [3], the half-maximal degradation concentration (DC50) was less than 100 nM and the Dmax was greater than 75%.
With `Cc1ncsc1-c1ccc([C@H](C)NC(=O)[C@@H]2C[C@@H](O)CN2C(=O)[C@@H](c2cc(CCN3CCC(N4CCN5c6cc(-c7ccccc7O)nnc6NC[C@H]5C4)CC3)no2)C(C)C)cc1` [Example 91, (2S,4R)-4-hydroxy-1-((R)-2-(3-(2-(4-((S)-2-(2-hydroxyphenyl)-5,6,6a,7,9,10-hexahydro-8H-pyrazino[1′,2′:4,5]pyrazino[2,3-c]pyridazin-8-yl)piperidin-1-yl)ethyl)isoxazol-5-yl)-3-methylbutanoyl)-N-((S)-1-(4-(4-methylthiazol-5-yl)phenyl)ethyl)pyrrolidine-2-carboxamide], in experiment [3], the 50% degradation concentration (DC50) was less than 100 nM and the Dmax was greater than 75%.
